The structures appear in SMILES notation.

For one data set, the system named is A549 and Hela cells. Briefly: Live cell staining of A549 and Hela cells. Format: cell-based. Particulars: 2 μM, 1 h.
For data set [1], the system named is LDs in the yolk sac of zebrafish embryos. Briefly: In vivo zebrafish embryo imaging. Particulars: 3-day-old zebrafish embryos, stained for 30 min. On the procedure: FIG. 22 In vivo zebrafish embryo imaging stained with TBSM (1 μM, […]), λex=488 nm, λem=550-650 nm. The right is the enlarged part of white frame in the left.
Yolk sac as a neutral lipid and polar phospholipids storage organ provides energy for the upgrowth of zebrafish. Intense red fluorescence signals originating from the yolk sac in 3-day-old zebrafish embryos were observed after stained with TBSM for 30 min (FIG. 22).

In data set [2] the test system is lipid droplets (LDs) in Hela cells. Put plainly: Co-localization with BODIPY 493/503 in live Hela cells (confocal imaging). The settings on record: 2 μM TBSM 1 h, co-stained with BODIPY 493/503. The data set is classed as cell-based. As to the method:
FIG. 19 Confocal fluorescent images of live HeLa cell stained with 2 μM TBSM (1 h) and 1 μg/mL BODIPY (1 h). TBSM: λex=488 nm, λem=550-650 nm; BODIPY: λex=488 nm, λem=490-535 nm. Scale bar=20 μm. The number on the figure is colocalization coefficient.
To confirm the specificity of the TBSM for LDs imaging, the co-localization experiments were then carried out by incubating Hela cells with TBSM and BODIPY 493/503, a commercial dye for LDs.

Data set [3] is described as follows: Photophysical properties (PL emission, quantum yield, AIE). The data set is classed as physicochemical. Particulars: for aggregation induced emission (AIE): THF/water mixtures with increasing water fraction. On the procedure: FIG. 16A Normalized absorption and PL spectra of TBSM in THF solution (c=10^−5 M) and FIG. 16B Normalized absorption and PL spectra of TBSM in solid state. λex=460 nm.
FIG. 17A PL spectra of TBSM in water/THF mixtures with different water fractions (fw); FIG. 17B Plots of relative PL intensity (αAIE=I/I0, I0=PL intensity in pure THF at 672 nm) vs fw. c=10 μM, λex=460 nm. Insert: the fluorescence pictures of the mixture with fw=50% and 95%.
FIG. 23A Absorption spectra of TBSMCN in THF (c=10^−5 mol/L) and as film. FIG. 23B PL spectra of TBSMCN in THF (c=10^−5 mol/L) and as film, λex=530 nm.
FIG. 24A PL spectra of TBSMCN in H2O/THF mixtures with different water fractions (fw). Concentration: 10^−5 M; λex=530 nm. FIG. 24B Plots of relative emission intensity (I/I0) versus the composition of the mixture, where I0=PL intensity in pure THF at λem=810 nm.
UV spectrum FIG. 27A and PL spectrum FIG. 27B of TBSMPy in film state. λex=560 nm.
UV spectrum FIG. 28A and PL spectrum FIG. 28B of TBSMDPy in film state. λex=580 nm.
The photophysical properties of TBSM were first examined. […] TBSM gave a much brighter red emission in toluene solution with an emission wavelength at 605 nm and a QY of 67.9%. While in THF solution, the emission wavelength red-shifted to 669 nm with a QY of 4.1%.
We then investigated the luminescence behavior of TBSM in the mixture of THF and water to see whether it is AIE-active. When adding water into the THF solution, the photoluminescence (PL) intensity decreased with the water fraction (fw) in a range of 0-50%. In this case, the TICT effect dominated the photophysical process and reduced the emission intensity. When the fw exceeded 50%, the TBSM molecule began to aggregate and made the local microenvironment less polar. Therefore, the conformation rigidification became dominated and reversed the PL intensity from weak to strong.
To gain an insight to the details of the photophyscial properties of TBSM, we analyzed its crystal structure. TBSM molecules also show bright emission in the solid state since the locked nonplanar conformation can avoid the strong intermolecular π-π interactions. Indeed, no strong intermolecular π-π stacking has been observed in the crystal packing of TBSM. However, multiple intermolecular non-covalent interactions such as S . . . π, C≡N . . . π, C—H . . . N, C—H . . . S, and intermolecular hydrogen bonding interactions were observed which helps lock the solid-state molecular motion.
The photophysical properties of TBSMCN were investigated. […] In the film, the ICT peak further red shifted to 580 nm. […] TBSMCN was also AIE-active, showing increased PL emission intensity in the mixture of THF and water as the water fraction increased (FIG. 24A and FIG. 24B).
The photophysical properties of TBSMPy and TBSMDPy were studied. In the film state, they had absorption peaks around 400 nm and 580 nm. The emission peaks were at 750 nm with high QY of 16.3% and 25.0% for TBSMPy and TBSMDPy, respectively (FIGS. 27 and 28).

Data set [4] concerns LDs of liver tissues of mice. Put plainly: Ex vivo co-staining with BODIPY in high-fat feeding mice liver tissue. Particulars: TBSM 2 μM 1 h, BODIPY 2 μM 1 h. On the procedure: FIG. 20 Co-stained ex vivo confocal one-photon (λex=488 nm) images TBSM (2 μM, 1 h) and BODIPY (2 μM, 1 h) in high-fat feeding mice liver tissue. TBSM: λex=488 nm, λem=550-650 nm; BODIPY: μex=488 nm, λem=490-535 nm. Scale bar: 10 μm. The number on the picture is colocalization coefficient.

As for `N#CC(C#N)=C1Sc2c(F)c(-c3ccc(N(c4ccccc4)c4ccccc4)cc3)c3nsnc3c2S1` [TBSM], in the data set on A549 and Hela cells, the “permeability for living cells” value is “fast permeability”. In data set [1], the “specificity toward LDs in vivo” value is given as “highly specific toward LDs”. Moreover, the co-localization coefficient in data set [2] was 0.91; in data set [4] it was 0.97. In addition, the QY came out at 4.1% in data set [3] (THF solution) and 67.9% in data set [3] (toluene solution). Besides, the values for the emission wavelength in data set [3] (THF solution), in data set [3] (solid) and in data set [3] (toluene solution) were 669 nm, 670 nm and 605 nm, respectively. In data set [3], the “aggregation induced emission (AIE)” value is listed as “exhibits typical AIE property”. This compound registered a quantum yield in data set [3] (solid) of 13%.
Turning to `N#CC(C#N)=C1Sc2c(c(-c3ccc(N(c4ccccc4)c4ccccc4)cc3)c3nsnc3c2C#Cc2cc(C#Cc3cccnc3)cc(C#Cc3cccnc3)c2)S1` [TBSMDPy], in data set [3] (film state), the QY was found to be 25.0% and the emission peak was 750 nm.
The corresponding values for `N#CC(C#N)=C1Sc2c(c(-c3ccc(N(c4ccccc4)c4ccccc4)cc3)c3nsnc3c2C#Cc2ccncc2)S1` [TBSMPy] are 16.3% and 750 nm.
`N#CC(C#N)=C1Sc2c(c(-c3ccc(N(c4ccccc4)c4ccccc4)cc3)c3nsnc3c2C#N)S1` [TBSMCN]: the “aggregation induced emission (AIE)” value in data set [3] is on record as “AIE-active”. Moreover, the QY result in data set [3] (film state) is “about 10%”.
